# Measured values as given in publication PMC6917776, “Discovery of a chemical probe for PRDM9” (Nature Communications, 2019).
# Where two headings read alike, the source gives them in different places.
# How the values were obtained:
# DNMT1 = target: T1, DNMT1 (Homo sapiens, UniProt P26358); experiment: Methyltransferase selectivity assay (SPA); assay type: biochemical
# T1 construct: purchased Structural Genomics Consortium (SGC Toronto) in-house methyltransferase panel
# Procedure: Selectivity against methyltransferases were determined as described previously. Details of the assays are described in the supplementary methods.
# Methyltransferase selectivity assay1
# The effect of chemical probes and negative controls on the methyltransferase activities of protein, DNA and RNA methyltransferases was tested by radiometric assays using 3H-SAM. For proteins such as MLL1 trimeric, MLL3 pentameric, EZH1 (PRC2) pentameric, and EZH2 (PRC2) trimeric complexes, as well as G9a, GLP, SUV39H1, SUV39H2, SUV420H1, SUV420H2, SETD2, SETD8, SETDB1, SETD7, PRMT1, PRMT3, PRMT4, PRMT5/ MEP50 complex, PRMT6, PRMT7, PRMT8, PRMT9, PRDM9, SMYD2, SMYD3, DNMT1, and BCDIN3D the incorporation of a tritium-labeled methyl group into biotinylated substrate was monitored using scintillation proximity assay (SPA). Briefly, a 10 µL reaction containing 3H-SAM and substrate at concentrations close to the apparent Km values for each enzyme (balanced conditions) was prepared. The reactions were quenched with 10 µL of 7.5 M guanidine hydrochloride; 180 µL of 20 mM Tris buffer (pH 8.0) were added, and the mixture was transferred to a 96-well FlashPlate and incubated for 1 h. The counts per minute (CPM) was measured on a TopCount plate reader. The CPM in the absence of compound or enzyme was defined as 100% activity and background (0%), respectively, for each dataset. For DNMT1, the double-stranded DNA substrate was prepared by annealing two complementary strands (biotinylated forward strand: B-[…] and reverse strand: […]
# HCC1806 = experiment: CelltiterGlo viability cell assay; assay type: cell-based; conditions: up to 30 μM; days 3 and 6; Prdm9 expressing line
# How it was run: (§1)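 CelltiterGlo luminescence, day 3 and day 6 readouts; compound 0.01–30 μM; data normalized to DMSO; n=3 biological replicates ± SEM.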
# MDA-MB-436 = experiment: CelltiterGlo viability cell assay; assay type: cell-based; conditions: up to 30 μM; days 3 and 6; matched control line
# How it was run: as §1
# SKMM2 = experiment: CelltiterGlo viability cell assay; assay type: cell-based; conditions: up to 30 μM; days 3 and 6; Prdm9 expressing line
# How it was run: as §1
# [1] = 10µM compound, Exp1, Exp2, 10 µM
# T1 sequence (P26358 whole entry): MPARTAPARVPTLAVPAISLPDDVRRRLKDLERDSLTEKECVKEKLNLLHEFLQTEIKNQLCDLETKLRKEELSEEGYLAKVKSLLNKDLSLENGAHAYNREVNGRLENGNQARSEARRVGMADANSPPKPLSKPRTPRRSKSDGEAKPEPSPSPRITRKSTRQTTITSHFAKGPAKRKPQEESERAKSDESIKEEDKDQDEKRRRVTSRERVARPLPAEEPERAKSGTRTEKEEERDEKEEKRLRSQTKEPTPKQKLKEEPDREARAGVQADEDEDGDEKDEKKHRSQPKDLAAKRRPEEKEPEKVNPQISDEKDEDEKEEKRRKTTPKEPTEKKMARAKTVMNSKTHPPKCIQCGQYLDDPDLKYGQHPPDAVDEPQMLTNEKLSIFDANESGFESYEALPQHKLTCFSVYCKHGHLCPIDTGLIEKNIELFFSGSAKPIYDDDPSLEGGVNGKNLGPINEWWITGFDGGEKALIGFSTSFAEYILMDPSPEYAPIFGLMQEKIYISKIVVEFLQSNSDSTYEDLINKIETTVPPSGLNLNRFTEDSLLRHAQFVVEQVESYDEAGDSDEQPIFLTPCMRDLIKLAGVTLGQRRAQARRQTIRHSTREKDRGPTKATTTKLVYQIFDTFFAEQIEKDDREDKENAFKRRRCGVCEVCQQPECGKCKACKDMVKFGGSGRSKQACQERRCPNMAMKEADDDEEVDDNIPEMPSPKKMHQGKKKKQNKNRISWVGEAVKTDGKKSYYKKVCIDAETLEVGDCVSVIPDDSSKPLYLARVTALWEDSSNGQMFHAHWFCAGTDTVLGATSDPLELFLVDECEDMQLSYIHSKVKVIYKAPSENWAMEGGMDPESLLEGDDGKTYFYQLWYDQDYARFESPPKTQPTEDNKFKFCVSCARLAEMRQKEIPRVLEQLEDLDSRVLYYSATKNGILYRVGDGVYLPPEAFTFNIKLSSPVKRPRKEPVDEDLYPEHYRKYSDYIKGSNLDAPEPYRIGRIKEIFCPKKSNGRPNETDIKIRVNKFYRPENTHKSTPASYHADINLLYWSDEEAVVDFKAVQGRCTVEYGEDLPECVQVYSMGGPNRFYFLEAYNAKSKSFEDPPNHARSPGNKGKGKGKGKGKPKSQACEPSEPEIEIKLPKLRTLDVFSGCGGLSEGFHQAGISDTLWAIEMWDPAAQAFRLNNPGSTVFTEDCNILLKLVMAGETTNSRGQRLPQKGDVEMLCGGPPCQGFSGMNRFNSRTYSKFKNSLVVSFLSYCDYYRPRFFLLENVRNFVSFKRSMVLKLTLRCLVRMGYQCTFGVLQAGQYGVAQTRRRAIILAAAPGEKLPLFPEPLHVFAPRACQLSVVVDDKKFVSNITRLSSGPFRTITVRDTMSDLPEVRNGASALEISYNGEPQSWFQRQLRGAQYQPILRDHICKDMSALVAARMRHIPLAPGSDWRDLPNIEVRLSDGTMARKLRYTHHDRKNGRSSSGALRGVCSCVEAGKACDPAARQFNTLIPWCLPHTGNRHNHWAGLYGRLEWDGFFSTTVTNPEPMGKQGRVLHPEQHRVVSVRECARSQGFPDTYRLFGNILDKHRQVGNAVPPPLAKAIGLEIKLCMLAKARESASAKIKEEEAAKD
SMILES,"Activity % (DNMT1; 1µM compound, Exp1, Exp2, 1 µM) [%]","activity at 1 µM (DNMT1; 1µM compound, Exp1, Exp2, read-out: Activity %) [%]",Activity % (DNMT1; [1]) [%],"activity at 10 µM (DNMT1; 10µM compound, Exp1, Exp2, read-out: Activity %) [%]",Effect on proliferation (in words) (HCC1806),Effect on proliferation (in words) (MDA-MB-436),Effect on proliferation (in words) (SKMM2),"activity at 1 µM (DNMT1; 1µM compound, Exp1, Exp2) [%]","activity at 10 µM (DNMT1; 10µM compound, Exp1, Exp2) [%]"
COc1cc(OC)cc(-c2noc(N3CCN(C)C4(CCN(c5ccnc(C)c5)CC4)C3)n2)c1 [MRK-740],95,98,101,99,did not have any significant effect,did not have any significant effect,did not have any significant effect,–,–
COc1cc(OC)cc(-c2noc(N3CCN(C)C4(CCN(c5ccccc5)CC4)C3)n2)c1 [MRK-740 -NC],–,–,98,–,–,–,–,105,102
